Where a SMILES comes first, the peptide text is derived from it. [ ]: non-standard residue; d: D form. Nle = CCCC[C@H](N)C(=O)O
Biological target: T1, human PTHR1-H223R (Homo sapiens, UniProt Q03431, H223R)
T1 construct: expressed in transfected cells; host or cells: GHR-10 (HEK-293 stably expressing GloSensor and PTHR1-H223R)
T1 sequence (Q03431 27-593 H223R): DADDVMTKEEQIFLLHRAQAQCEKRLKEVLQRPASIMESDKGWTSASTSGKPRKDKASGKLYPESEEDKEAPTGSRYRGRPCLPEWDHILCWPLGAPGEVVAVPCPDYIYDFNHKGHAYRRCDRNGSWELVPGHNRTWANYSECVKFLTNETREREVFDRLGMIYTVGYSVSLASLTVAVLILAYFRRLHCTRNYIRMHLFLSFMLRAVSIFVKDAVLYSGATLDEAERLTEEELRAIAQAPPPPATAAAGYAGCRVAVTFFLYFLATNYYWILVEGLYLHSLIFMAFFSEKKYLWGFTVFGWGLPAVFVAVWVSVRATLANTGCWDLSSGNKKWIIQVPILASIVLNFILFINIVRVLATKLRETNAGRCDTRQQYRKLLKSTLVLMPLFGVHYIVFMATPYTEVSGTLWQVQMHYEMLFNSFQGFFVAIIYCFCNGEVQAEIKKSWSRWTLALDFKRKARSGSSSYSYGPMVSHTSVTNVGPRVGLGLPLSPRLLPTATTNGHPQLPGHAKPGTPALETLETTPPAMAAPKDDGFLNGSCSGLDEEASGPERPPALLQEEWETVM
Test: Inverse agonism on basal cAMP signaling in GHR-10 cells
Assay type: cell-based
Details: for Reduction of basal cAMP, % vehicle, After ligand washout / Reduction of basal cAMP, % vehicle, Ligand @ −6M: GHR-10 cells, from AUC, representative experiment; for Reduction of basal cAMP, % vehicle, After ligand washout: 26 minutes after washout of unbound ligand; for Reduction of basal cAMP, % vehicle, Ligand @ −6M: peptide 1×10^−6 M for 24 minutes; for inverse agonist properties on constitutively active PTHR1-H223R (basal cAMP): GHR-10 cells (HEK293/GloSensor)
Protocol: cAMP signaling was assessed in the HEK293-derived or SaOS2-derived cell lines stably expressing the luciferase-based GloSensor™ cAMP reporter (Hattersley et al., Paper presented at: Novel Signaling Mechanisms and Bone Cell Biology 2014; Binkowski et al., Methods in molecular biology. 756:263-271). HEK-293 cells were further transfected to stably express the hPTHR1, hPTHR1-H223R, or hPTHR1-T410P. The cells were seeded into 96-well white plates and were assayed 24 to 48 hours post-confluency. Assays were performed at room temperature in CO2-independent culture media (Life Technologies, Corp., Carlsbad, Calif.) containing 0.1% BSA (CIDB). The cells were pre-loaded with luciferin (0.5 mM in CIDB) for 15 minutes, then PTH peptides were added at varying concentrations. cAMP-dependent luminescence was measured at two-minute intervals using a PerkinElmer Envision plate reader. The time at which maximum luminescence (cps) observed with agonist alone, typically at 10-20 minutes after agonist addition, was used to obtain data from wells containing antagonist with or without agonist, to thus generate antagonist ligand dose-response curves. The resulting cps values were then plotted against ligand concentration using GraphPad Prism 7.0 software and a four-parameter logistics curve fitting equation, which yielded parameters of inhibitory potency (pIC50).
These experiments were performed in HEK-293 cells stably transfected to express the GloSensor™ cAMP reporter along with a constitutively active mutant human PTHR1. The HEK-293 cells stably expressing GloSensor™ cAMP reporter along with a constitutively active mutant human PTHR1-H223R are GHR-10 cells. The HEK-293 cells stably expressing GloSensor™ cAMP reporter along with a constitutively active mutant human PTHR1-T410P are GTP-4 cells. The HEK-293 cells stably expressing GloSensor™ cAMP reporter along with a WT-PTHR1 are GP-2.3 cells. GP-2.3 cells were used as control. […] Effects on basal cAMP signaling over time were assessed during periods of direct ligand addition (FIGS. 15A-15F). The measurements were performed by recording GloSensor™ luminescence as counts per second (cps) using a PerkinElmer Envision plate reader. The data are illustrated in FIGS. 15A-15F. Data are from triplicate wells (means±SEM) of a single experiment representative of two others.
Persistence of the antagonist/inverse agonist effects (prolonged action) as follows. Effects of eight peptides on basal and PTH(1-34)-stimulated cAMP signaling by PTHR-H223R were assessed in GHR-10 cells (HEK-293-derived cells stably expressing glosensor cAMP reporter and PTHR1-H223R). Time courses of changes in cAMP levels were recorded in three consecutive phases:
1) after initial addition of a candidate antagonist/inverse agonist (1×10^−6 M-1×10^−9 M) to cells pre-loaded for […] with luciferin (left column);
2) after removal of unbound inverse agonist by extensive wash-out with buffer and replenishment with fresh luciferin-containing buffer (middle column); and
Control wells were treated with vehicle. GloSensor™ luminescence, as counts per second (cps), was recorded using a PerkinElmer Envision plate reader. Data are from duplicate wells (means±SEM) of a single experiment representative of two others. The results are illustrated in Table 7 and in FIGS. 16A-16C, 17A-17C, 18A-18C, 19A-19C, 20A-20C, 21A-21C, 22A-22C, and 23A-23C.
GHR10 cells were treated with vehicle or vehicle containing the indicated peptide for 24 minutes and cAMP-dependent luminescence was recorded at two-minute intervals. The cells were then washed to remove unbound ligand and media containing fresh luciferin was added, and cAMP luminescence was recorded for another 26 minutes. Percentage reduction was calculated from the area-under-the-curve (AUC) values derived from the time course plots using the equation: […]

SMILES	Reduction of basal cAMP, % vehicle, After ligand washout [% vehicle]	Reduction of basal cAMP, % vehicle, Ligand @ −6M [% vehicle]	inverse agonist properties on constitutively active PTHR1-H223R (basal cAMP)
CC[C@H](C)[C@H](NC(=O)[C@H](CCC(=O)O)NC(=O)[C@H](C)NC(=O)[C@@H](NC(=O)[C@H](Cc1c[nH]cn1)NC(=O)[C@@H](NC(=O)[C@H](CCC(=O)O)NC(=O)[C@H](C)NC(=O)[C@@H](NC(=O)[C@H](CC(C)C)NC(=O)[C@H](CCCCN)NC(=O)[C@H](Cc1c[nH]cn1)NC(=O)[C@H](CC(C)C)NC(=O)[C@H](Cc1c[nH]c2ccccc12)NC(=O)[C@H](C)NC(=O)[C@H](CCCNC(=N)N)NC(=O)[C@H](CCCNC(=N)N)NC(=O)[C@H](CCCNC(=N)N)NC(=O)[C@H](C)NC(=O)[C@H](CC(=O)O)NC(=O)[C@H](CCC(N)=O)NC(=O)[C@@H](NC(=O)[C@H](Cc1c[nH]c2ccccc12)NC(=O)[C@H](CCCCN)NC(=O)[C@@H](Cc1c[nH]c2ccccc12)NC(=O)[C@H](CC(C)C)NC(=O)[C@H](CCC(N)=O)NC(=O)[C@H](Cc1c[nH]cn1)NC(=O)[C@H](CCSC)NC(=O)[C@@H](N)CC(C)C)[C@@H](C)CC)[C@@H](C)CC)[C@@H](C)CC)[C@@H](C)O)C(N)=O [compound 2001, L11, dW12, W23-LA-PTH(7-36)-2001] (H-LMHQL[dW]KWIQDARRRAWLHKLIAEIHTAEI-NH2; N-terminus assumed)	65	66	
CCCC[C@H](NC(=O)[C@@H](N)CC(C)C)C(=O)N[C@@H](Cc1c[nH]cn1)C(=O)N[C@@H](CCC(N)=O)C(=O)N[C@@H](CCCNC(=N)N)C(=O)N[C@H](Cc1c[nH]c2ccccc12)C(=O)N[C@@H](CCCCN)C(=O)N[C@@H](Cc1c[nH]c2ccccc12)C(=O)N[C@H](C(=O)N[C@@H](CCC(N)=O)C(=O)N[C@@H](CC(=O)O)C(=O)N[C@@H](C)C(=O)N[C@@H](CCCNC(=N)N)C(=O)N[C@@H](CCCNC(=N)N)C(=O)N[C@@H](CCCNC(=N)N)C(=O)N[C@@H](C)C(=O)N[C@@H](Cc1c[nH]c2ccccc12)C(=O)N[C@@H](CC(C)C)C(=O)N[C@@H](Cc1c[nH]cn1)C(=O)N[C@@H](CCCCN)C(=O)N[C@@H](CC(C)C)C(=O)N[C@H](C(=O)N[C@@H](C)C(=O)N[C@@H](CCC(=O)O)C(=O)N[C@H](C(=O)N[C@@H](Cc1c[nH]cn1)C(=O)N[C@H](C(=O)N[C@@H](C)C(=O)N[C@@H](CCC(=O)O)C(=O)N[C@H](C(N)=O)[C@@H](C)CC)[C@@H](C)O)[C@@H](C)CC)[C@@H](C)CC)[C@@H](C)CC [compound 1992, Nle8, dW12, W23-LA-PTH(7-36)-1992] (H-L[Nle]HQR[dW]KWIQDARRRAWLHKLIAEIHTAEI-NH2; N-terminus assumed)	40	51	inverse agonist response
CC[C@H](C)[C@H](NC(=O)[C@H](CCC(=O)O)NC(=O)[C@H](C)NC(=O)[C@@H](NC(=O)[C@H](Cc1c[nH]cn1)NC(=O)[C@@H](NC(=O)[C@H](CCC(=O)O)NC(=O)[C@H](C)NC(=O)[C@@H](NC(=O)[C@H](CC(C)C)NC(=O)[C@H](CCCCN)NC(=O)[C@H](Cc1c[nH]cn1)NC(=O)[C@H](CC(C)C)NC(=O)[C@H](Cc1c[nH]c2ccccc12)NC(=O)[C@H](C)NC(=O)[C@H](CCCNC(=N)N)NC(=O)[C@H](CCCNC(=N)N)NC(=O)[C@H](CCCNC(=N)N)NC(=O)[C@H](C)NC(=O)[C@H](CC(=O)O)NC(=O)[C@H](CCC(N)=O)NC(=O)[C@@H](NC(=O)[C@H](Cc1c[nH]c2ccccc12)NC(=O)[C@H](CCCCN)NC(=O)[C@@H](Cc1c[nH]c2ccccc12)NC(=O)[C@H](CCCNC(=N)N)NC(=O)[C@H](CCC(N)=O)NC(=O)[C@H](Cc1c[nH]cn1)NC(=O)[C@H](CCSC)NC(=O)[C@@H](N)CC(C)C)[C@@H](C)CC)[C@@H](C)CC)[C@@H](C)CC)[C@@H](C)O)C(N)=O [compound 1990, dW12, W23-LA-PTH(7-36)-1990] (H-LMHQR[dW]KWIQDARRRAWLHKLIAEIHTAEI-NH2; N-terminus assumed)	39	50	inverse agonist response

— patent US20190119348A1, “PARATHYROID HORMONE RECEPTOR 1 ANTAGONIST AND INVERSE AGONIST POLYPEPTIDES AND METHODS OF THEIR USE” (The General Hospital Corporation, priority 2016, published 2019)
